# From ChEMBL document CHEMBL1201862, “PubChem BioAssay data set” (2004)
#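 48-hour exposure; five concentrations; linearly interpolated endpoints. GI50: concentration for 50% inhibition of growth.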 The source made the active and inactive calls. Cut-off read from the data, not from the text of the source: active = GI50 up to about 1.1 µM and inactive = higher.
# What was measured:
# Assay in all cases: DTP human tumour cell line panel, 48 h
# UO-31 = test system: UO-31
# K562 = test system: K562
# HT-29 = test system: HT-29
# SNB-19 = test system: SNB-19
# A498 = test system: A498
# NCI-H522 = test system: NCI-H522
# UACC-62 = test system: UACC-62
# SN12C = test system: SN12C
# MCF7 = test system: MCF7
# ACHN = test system: ACHN
# NCI-H23 = test system: NCI-H23
# M14 = test system: M14
# TK-10 = test system: TK-10
# 786-0 = test system: 786-0
# SNB-75 = test system: SNB-75
# MDA-MB-231 = test system: MDA-MB-231
# SF-268 = test system: SF-268
# RXF 393 = test system: RXF 393
# SK-MEL-28 = test system: SK-MEL-28
# T47D = test system: T47D
SMILES,GI50 (UO-31),GI50 (K562),GI50 (HT-29),GI50 (SNB-19),GI50 (A498),GI50 (NCI-H522),GI50 (UACC-62),GI50 (SN12C),GI50 (MCF7),GI50 (ACHN),GI50 (NCI-H23),GI50 (M14),GI50 (TK-10),GI50 (786-0),GI50 (SNB-75),GI50 (MDA-MB-231),GI50 (SF-268),GI50 (RXF 393),GI50 (SK-MEL-28),GI50 (T47D)
O=C(O)CSc1nnc2c3ccccc3c3ccccc3c2n1,33.6 µM (inactive),59.6 µM (inactive),68.4 µM (inactive),44.7 µM (inactive),> 100 µM (inactive),49.9 µM (inactive),61.9 µM (inactive),38.9 µM (inactive),40.3 µM (inactive),53.6 µM (inactive),> 100 µM (inactive),47.1 µM (inactive),> 100 µM (inactive),56.2 µM (inactive),36.6 µM (inactive),67.3 µM (inactive),56.1 µM (inactive),57.9 µM (inactive),> 100 µM (inactive),
O=C(Nc1ccccc1F)c1cc2ccc(O)cc2o/c1=N\c1cccc(C(F)(F)F)c1,3.85 µM (inactive),2.85 µM (inactive),32.1 µM (inactive),5.87 µM (inactive),7.4 µM (inactive),2 µM (inactive),3.81 µM (inactive),,2.94 µM (inactive),3.57 µM (inactive),1.76 µM (inactive),5.18 µM (inactive),,4.57 µM (inactive),,,2.82 µM (inactive),,3.82 µM (inactive),2.59 µM (inactive)
Fc1cc(-c2ncc(Cl)cc2Cl)c2cccccc1-2,> 100 µM (inactive),,76.2 µM (inactive),> 100 µM (inactive),,> 100 µM (inactive),> 100 µM (inactive),,35.7 µM (inactive),> 100 µM (inactive),> 100 µM (inactive),82.6 µM (inactive),> 100 µM (inactive),> 100 µM (inactive),> 100 µM (inactive),> 100 µM (inactive),> 100 µM (inactive),92.5 µM (inactive),,
C[C@@]1(O)C[C@@H](N2C(=O)O[C@@H](c3ccccc3)[C@H]2c2ccccc2)[C@@H]1COCc1ccccc1,21.6 µM (inactive),19.4 µM (inactive),17.9 µM (inactive),34.8 µM (inactive),18.4 µM (inactive),15 µM (inactive),11.3 µM (inactive),17.4 µM (inactive),24.5 µM (inactive),26.2 µM (inactive),16.1 µM (inactive),15.8 µM (inactive),29.2 µM (inactive),21.3 µM (inactive),,15.5 µM (inactive),18.2 µM (inactive),18.8 µM (inactive),18.2 µM (inactive),
CC1C(c2ccc(F)cc2)c2cc3c(cc2OC1N1CCCC1)OCO3 (stereo unspecified),23.2 µM (inactive),42 µM (inactive),47.8 µM (inactive),29.1 µM (inactive),,29 µM (inactive),55 µM (inactive),80.4 µM (inactive),45.4 µM (inactive),27.7 µM (inactive),64.9 µM (inactive),54.2 µM (inactive),37.2 µM (inactive),45.1 µM (inactive),22.3 µM (inactive),,36.8 µM (inactive),,90.4 µM (inactive),35.7 µM (inactive)
Cc1cccc2c1Oc1ncccc1C2NC(=O)CN(C)C (stereo unspecified),> 10 µM (inactive),> 10 µM (inactive),> 10 µM (inactive),> 10 µM (inactive),,> 10 µM (inactive),> 10 µM (inactive),> 10 µM (inactive),> 10 µM (inactive),> 10 µM (inactive),> 10 µM (inactive),> 10 µM (inactive),> 10 µM (inactive),> 10 µM (inactive),7.78 µM (inactive),,> 10 µM (inactive),,,
C[C@H]1CC[C@@]2(OC1)O[C@H]1C[C@H]3[C@@H]4CC[C@@H]5C[C@@H](OC6OC(CO)C(O)C(O)C6OC6OC(CO)C(O)C(O)C6O)CC[C@]5(C)[C@H]4CC[C@]3(C)[C@H]1[C@@H]2C (stereo partly specified),1.99 µM (inactive),2.07 µM (inactive),2 µM (inactive),2.18 µM (inactive),,2.71 µM (inactive),2.4 µM (inactive),2.07 µM (inactive),2.1 µM (inactive),2.11 µM (inactive),2.31 µM (inactive),2.06 µM (inactive),1.94 µM (inactive),2.01 µM (inactive),2.24 µM (inactive),2.09 µM (inactive),2.3 µM (inactive),,,1.99 µM (inactive)
S=C1/C(=N/c2ccccc2)N(c2ccccc2)/C(=N\c2cccc[n+]2Cc2ccccc2)N1c1ccccc1,16.4 µM (inactive),4.25 µM (inactive),16.4 µM (inactive),15.4 µM (inactive),,13.3 µM (inactive),11.9 µM (inactive),21 µM (inactive),18.9 µM (inactive),17 µM (inactive),19 µM (inactive),12.9 µM (inactive),26.3 µM (inactive),15.8 µM (inactive),< 0.01 µM (active),14.9 µM (inactive),20.6 µM (inactive),13.4 µM (inactive),17.6 µM (inactive),22.8 µM (inactive)
CC1(C)CC(=O)c2c(N)n[nH]c2C1,> 100 µM (inactive),> 100 µM (inactive),> 100 µM (inactive),> 100 µM (inactive),> 100 µM (inactive),> 100 µM (inactive),> 100 µM (inactive),> 100 µM (inactive),> 100 µM (inactive),> 100 µM (inactive),> 100 µM (inactive),> 100 µM (inactive),,> 100 µM (inactive),> 100 µM (inactive),> 100 µM (inactive),,> 100 µM (inactive),> 100 µM (inactive),
[N-]=[N+]=Nc1c(-c2ccccc2)c(Cl)nc2ccccc12,15.5 µM (inactive),45.7 µM (inactive),19.7 µM (inactive),29.9 µM (inactive),27.5 µM (inactive),18.1 µM (inactive),,32.5 µM (inactive),,19.6 µM (inactive),33.5 µM (inactive),46 µM (inactive),74.5 µM (inactive),38 µM (inactive),29.9 µM (inactive),31.8 µM (inactive),48.1 µM (inactive),51.6 µM (inactive),58.7 µM (inactive),41 µM (inactive)
CO/N=C(\C(=O)N(C)n1cnnc1)c1csc(NC(c2ccccc2)(c2ccccc2)c2ccccc2)n1,> 10 µM (inactive),> 10 µM (inactive),> 10 µM (inactive),> 10 µM (inactive),> 10 µM (inactive),> 10 µM (inactive),,> 10 µM (inactive),> 10 µM (inactive),> 10 µM (inactive),> 10 µM (inactive),> 10 µM (inactive),> 10 µM (inactive),> 10 µM (inactive),> 10 µM (inactive),,> 10 µM (inactive),> 10 µM (inactive),> 10 µM (inactive),> 10 µM (inactive)
[N-]=[N+]=CC(=O)OC1CCOCC1,> 100 µM (inactive),> 100 µM (inactive),> 100 µM (inactive),> 100 µM (inactive),> 100 µM (inactive),> 100 µM (inactive),> 100 µM (inactive),> 100 µM (inactive),> 100 µM (inactive),> 100 µM (inactive),> 100 µM (inactive),,> 100 µM (inactive),> 100 µM (inactive),,> 100 µM (inactive),> 100 µM (inactive),> 100 µM (inactive),> 100 µM (inactive),
CCOC(=O)C1=C(OC(OCC)C(CC)[Se]c2ccccc2)CCC1 (stereo unspecified),28.9 µM (inactive),44 µM (inactive),25.1 µM (inactive),42.2 µM (inactive),41.2 µM (inactive),15.6 µM (inactive),17.8 µM (inactive),17.1 µM (inactive),,32.2 µM (inactive),12.5 µM (inactive),15.1 µM (inactive),82 µM (inactive),15.5 µM (inactive),25.3 µM (inactive),,18.7 µM (inactive),19.5 µM (inactive),32.3 µM (inactive),
CCOc1ccc(N2C(=O)NC3(c4ccccc4)N(C)C(=O)N(C)C23c2ccccc2)cc1 (stereo unspecified),92.9 µM (inactive),74 µM (inactive),94.2 µM (inactive),> 100 µM (inactive),> 100 µM (inactive),33.9 µM (inactive),86.3 µM (inactive),> 100 µM (inactive),46.2 µM (inactive),> 100 µM (inactive),> 100 µM (inactive),> 100 µM (inactive),,> 100 µM (inactive),12.4 µM (inactive),83.6 µM (inactive),,66.4 µM (inactive),> 100 µM (inactive),
O=C(Nc1cc2c(=O)[nH]c3ccccc3c2oc1=O)c1cnccn1,80.9 µM (inactive),> 100 µM (inactive),> 100 µM (inactive),> 100 µM (inactive),,> 100 µM (inactive),> 100 µM (inactive),> 100 µM (inactive),> 100 µM (inactive),> 100 µM (inactive),> 100 µM (inactive),> 100 µM (inactive),> 100 µM (inactive),> 100 µM (inactive),> 100 µM (inactive),> 100 µM (inactive),,> 100 µM (inactive),> 100 µM (inactive),> 100 µM (inactive)
OC1(c2cc3ccccc3s2)CCCCC1,51.1 µM (inactive),34.4 µM (inactive),23.7 µM (inactive),82.4 µM (inactive),43.2 µM (inactive),28.1 µM (inactive),69.7 µM (inactive),30.9 µM (inactive),36.6 µM (inactive),69 µM (inactive),46.6 µM (inactive),66.8 µM (inactive),64.4 µM (inactive),34 µM (inactive),35.1 µM (inactive),30.8 µM (inactive),29.2 µM (inactive),39.4 µM (inactive),81.3 µM (inactive),
